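Where inhibition never reached the appropriate level, the endpoint shown equals the highest concentration tested. Otherwise, values were interpolated linearly from a five-concentration, 48-hour dose response in 96-well plates. GI50: concentration for 50% inhibition of growth. At the TGI there is no net growth.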
Assays:
Assay in all cases: NCI anticancer screen, dose series, 48 h
NCI/ADR-RES ovarian = tested on: NCI/ADR-RES ovarian
IGROV1 ovarian = tested on: IGROV1 ovarian
T-47D breast = tested on: T-47D breast
SW-620 colon = tested on: SW-620 colon
MDA-MB-468 breast = tested on: MDA-MB-468 breast
MCF7 breast = tested on: MCF7 breast
SF-539 CNS = tested on: SF-539 CNS
MALME-3M melanoma = tested on: MALME-3M melanoma
OVCAR-3 ovarian = tested on: OVCAR-3 ovarian
HS 578T breast = tested on: HS 578T breast
CAKI-1 renal = tested on: CAKI-1 renal
COLO 205 colon = tested on: COLO 205 colon
MDA-MB-231 breast = tested on: MDA-MB-231 breast
SK-MEL-5 melanoma = tested on: SK-MEL-5 melanoma
ACHN renal = tested on: ACHN renal
NCI-H23 lung = tested on: NCI-H23 lung
SK-MEL-2 melanoma = tested on: SK-MEL-2 melanoma
SN12C renal = tested on: SN12C renal
RXF 393 renal = tested on: RXF 393 renal
SK-OV-3 ovarian = tested on: SK-OV-3 ovarian
HOP-62 NSCLC = tested on: HOP-62 NSCLC
TK-10 renal = tested on: TK-10 renal
M14 melanoma = tested on: M14 melanoma
LOX IMVI melanoma = tested on: LOX IMVI melanoma
EKVX NSCLC = tested on: EKVX NSCLC
OVCAR-8 ovarian = tested on: OVCAR-8 ovarian
K-562 leukemia = tested on: K-562 leukemia
SNB-75 CNS = tested on: SNB-75 CNS
SNB-19 CNS = tested on: SNB-19 CNS
HT29 colon = tested on: HT29 colon
OVCAR-5 ovarian = tested on: OVCAR-5 ovarian
SF-268 CNS = tested on: SF-268 CNS
HCT-15 colon = tested on: HCT-15 colon
U251 CNS = tested on: U251 CNS
SR leukemia = tested on: SR leukemia
MOLT-4 leukemia = tested on: MOLT-4 leukemia
HOP-92 NSCLC = tested on: HOP-92 NSCLC
UACC-257 melanoma = tested on: UACC-257 melanoma
UACC-62 melanoma = tested on: UACC-62 melanoma
DU-145 prostate = tested on: DU-145 prostate
A498 renal = tested on: A498 renal
HL-60(TB) leukemia = tested on: HL-60(TB) leukemia
RPMI-8226 leukemia = tested on: RPMI-8226 leukemia
KM12 colon = tested on: KM12 colon
A549 NSCLC = tested on: A549 NSCLC
SF-295 CNS = tested on: SF-295 CNS
OVCAR-4 ovarian = tested on: OVCAR-4 ovarian
PC-3 prostate = tested on: PC-3 prostate
NCI-H522 lung = tested on: NCI-H522 lung
MDA-MB-435 = tested on: MDA-MB-435
SK-MEL-28 melanoma = tested on: SK-MEL-28 melanoma
NCI-H460 lung = tested on: NCI-H460 lung
HCC-2998 colon = tested on: HCC-2998 colon
NCI-H226 lung = tested on: NCI-H226 lung
UO-31 renal = tested on: UO-31 renal
BT-549 breast = tested on: BT-549 breast

CC(=O)Nc1ccc(-c2cn(-c3cccc(C(=O)Nc4ccc(Cl)c(C(F)(F)F)c4)c3)nn2)cn1
GI50 (NCI/ADR-RES ovarian): 3500 nM | TGI (NCI/ADR-RES ovarian): 17800 nM | GI50 (IGROV1 ovarian): 1700 nM | TGI (IGROV1 ovarian): 3360 nM | GI50 (T-47D breast): 2470 nM | TGI (T-47D breast): 7930 nM | GI50 (SW-620 colon): 1570 nM | TGI (SW-620 colon): 3290 nM | GI50 (MDA-MB-468 breast): 1450 nM | TGI (MDA-MB-468 breast): 3020 nM | GI50 (MCF7 breast): 1820 nM | TGI (MCF7 breast): 4120 nM | GI50 (SF-539 CNS): 1440 nM | TGI (SF-539 CNS): 2820 nM | GI50 (MALME-3M melanoma): 559 nM | TGI (MALME-3M melanoma): 1950 nM | GI50 (OVCAR-3 ovarian): 1920 nM | TGI (OVCAR-3 ovarian): 3620 nM | GI50 (HS 578T breast): 2030 nM | TGI (HS 578T breast): 7010 nM | GI50 (CAKI-1 renal): 1780 nM | TGI (CAKI-1 renal): 3540 nM | GI50 (COLO 205 colon): 1470 nM | TGI (COLO 205 colon): 3450 nM | GI50 (MDA-MB-231 breast): 1090 nM | TGI (MDA-MB-231 breast): 2390 nM | GI50 (SK-MEL-5 melanoma): 1900 nM | TGI (SK-MEL-5 melanoma): 4300 nM | GI50 (ACHN renal): 1930 nM | TGI (ACHN renal): 4040 nM | GI50 (NCI-H23 lung): 1520 nM | TGI (NCI-H23 lung): 2980 nM | GI50 (SK-MEL-2 melanoma): 1650 nM | TGI (SK-MEL-2 melanoma): 3780 nM | GI50 (SN12C renal): 1770 nM | TGI (SN12C renal): 3490 nM | GI50 (RXF 393 renal): 1690 nM | TGI (RXF 393 renal): 3500 nM | GI50 (SK-OV-3 ovarian): 2010 nM | TGI (SK-OV-3 ovarian): 5170 nM | GI50 (HOP-62 NSCLC): 1670 nM | TGI (HOP-62 NSCLC): 3490 nM | GI50 (TK-10 renal): 2300 nM | TGI (TK-10 renal): 4680 nM | GI50 (M14 melanoma): 1120 nM | TGI (M14 melanoma): 3460 nM | GI50 (LOX IMVI melanoma): 1390 nM | TGI (LOX IMVI melanoma): 2720 nM | GI50 (EKVX NSCLC): 1890 nM | TGI (EKVX NSCLC): 3920 nM | GI50 (OVCAR-8 ovarian): 2020 nM | TGI (OVCAR-8 ovarian): 4660 nM | GI50 (K-562 leukemia): 1320 nM | TGI (K-562 leukemia): 5890 nM | GI50 (SNB-75 CNS): 1610 nM | TGI (SNB-75 CNS): 4470 nM | GI50 (SNB-19 CNS): 2240 nM | TGI (SNB-19 CNS): 4700 nM | GI50 (HT29 colon): 1430 nM | TGI (HT29 colon): 3090 nM | GI50 (OVCAR-5 ovarian): 1930 nM | TGI (OVCAR-5 ovarian): 4860 nM | GI50 (SF-268 CNS): 2300 nM | TGI (SF-268 CNS): 5730 nM | GI50 (HCT-15 colon): 2020 nM | TGI (HCT-15 colon): 4280 nM | GI50 (U251 CNS): 1850 nM | TGI (U251 CNS): 3590 nM | GI50 (SR leukemia): 1860 nM | TGI (SR leukemia): > 100000 nM | GI50 (MOLT-4 leukemia): 2620 nM | TGI (MOLT-4 leukemia): 7990 nM | GI50 (HOP-92 NSCLC): 1580 nM | TGI (HOP-92 NSCLC): 3600 nM | GI50 (UACC-257 melanoma): 1560 nM | TGI (UACC-257 melanoma): 3500 nM | GI50 (UACC-62 melanoma): 1290 nM | TGI (UACC-62 melanoma): 2790 nM | GI50 (DU-145 prostate): 2830 nM | TGI (DU-145 prostate): 8430 nM | GI50 (A498 renal): 2900 nM | TGI (A498 renal): 5460 nM | GI50 (HL-60(TB) leukemia): 824 nM | TGI (HL-60(TB) leukemia): > 100000 nM | GI50 (RPMI-8226 leukemia): 2500 nM | TGI (RPMI-8226 leukemia): 34700 nM | GI50 (KM12 colon): 1810 nM | TGI (KM12 colon): 6370 nM | GI50 (A549 NSCLC): 1860 nM | TGI (A549 NSCLC): 3860 nM | GI50 (SF-295 CNS): 1510 nM | TGI (SF-295 CNS): 2910 nM | GI50 (OVCAR-4 ovarian): 2530 nM | TGI (OVCAR-4 ovarian): 7390 nM | GI50 (PC-3 prostate): 1830 nM | TGI (PC-3 prostate): 5210 nM | GI50 (NCI-H522 lung): 1710 nM | TGI (NCI-H522 lung): 3600 nM | GI50 (MDA-MB-435): 1390 nM | TGI (MDA-MB-435): 3050 nM | GI50 (SK-MEL-28 melanoma): 1350 nM | TGI (SK-MEL-28 melanoma): 2820 nM | GI50 (NCI-H460 lung): 1500 nM | TGI (NCI-H460 lung): 3050 nM | GI50 (HCC-2998 colon): 1870 nM | TGI (HCC-2998 colon): 4020 nM | GI50 (NCI-H226 lung): 1870 nM | TGI (NCI-H226 lung): 3780 nM | GI50 (UO-31 renal): 1640 nM | TGI (UO-31 renal): 3540 nM | GI50 (BT-549 breast): 1690 nM | TGI (BT-549 breast): 3500 nM
